# Experimental data from US11779597B2, “Method of treating Parkinson's and other neurodegenerative diseases” (Vector Vitale IP LLC, priority 2019, dated 2023).
# “Also recorded” adds a separate entry of the source.
# What was measured:
# Assay type in all cases: in vivo
# [1] = tested on: LPS rat models of Parkinson's disease; assay: Open field test
# From the text: Method. The open field test is a technique commonly used to measure locomotor activity of rodents and their level of exploratory activity in an unfamiliar environment, as well as assess the levels of fear of novelty, anxiety or an increase in orientation response in rodents (Denenberg V H, et al., Physiology and Behavior, 1969; 4:403-406; Pellow S et al., J Neurosci Methods. 1985; 14(3):149-67). Behavioral patterns measured in the open field test include: distance travelled in the outer and inner perimeter, duration of time spent in the outer and inner perimeter, the total distance travelled and a percentage of the number of internal squares crossed compared to the total number of squares.
# The open field was a square chamber 100×100 cm in size and with walls 60 cm high. The chamber was illuminated by two LED bulbs, 60 watts each, hanging at a height of 2 m. An IP camera was used to record the rodent movement. The MATLAB-based software was used to analyze the parameters. The statistical analysis was performed using GraphPad Prism. Significance was set at <0.005. The data collected from the open field were analyzed using One-way ANOVA (Tukey test or Dunnett test) and Unpaired t-test or Mann-Whitney.
# Data analysis and interpretation. A novel environment in which an animal finds itself evokes conflict between fear and a desire to explore this environment. These two behavioral tendencies are characterized by different temporal variations and different spatial advantages. In the analysis, an arena is divided into two zones: inner and outer. The total locomotor activity and time spent in the inner and outer zones are the most significant parameters for assessing the levels of anxiety in rats. […] An increase in attendance of the inner zone is interpreted as a decreased anxiety in the animal. The emotional and exploratory behavior of an animal can be affected by various disorders in such brain regions as the hippocampus and the amygdala. In addition, various substances that have anxiolytic, stimulating and muscle relaxant effects can influence the results of the experiment. FIG. 50A and FIG. 50B show an example of analysis of a rat trajectory in the experimental arena.
# On the 1st day of the experiment, rats were either operated to model hemi-parkinsonism or sham operated. From the 9th to the 18th day of the experiment, the animals were injected either deuterium-depleted water or the test substance, according to their allocation into groups, for 10 days. On the 8th day of the experiment (before initiation of treatment—apomorphine test I) and on the 21st day of the experiment (after the end of administering the test substance —apomorphine test II) the animals underwent an apomorphine test to analyze the development of hemi-parkinsonism which correlates with the number of destroyed dopaminergic neurons. In addition, a follow-up analysis of fecal water content was carried out, i.e., before the start of treatment on the 8th day after the operation, as well as on the 21st (after the end of treatment) and the 28th day (before autopsy). On the 24th day of the experiment, behavioral tests were carried out in all groups. All animals were weighed before autopsy. During autopsy, ⅔ of animals from each group were sacrificed by cervical dislocation and brain and blood samples were collected for further biochemical and immunological tests. ⅓ of the animals were used for further immunohistochemical studies of the brain; for this purpose, under anesthesia, a procedure of fast, controlled and uniform fixation of the whole body of the animal was performed using 4% paraformaldehyde perfused through the heart of the rat to obtain the best preservation of the brain architecture for immunohistochemistry. Gage G J, et al., J Vis Exp. 2012 Jul. 30; (65).
# [2] = tested on: neuronal nitric oxide synthase; assay: Neuronal nitric oxide synthase expression in astrocytes in LPS rat models; conditions: sham operation and LPS-induced PD; 1.5 mg/kg
# Description: On the 1st day of the experiment, rats were either operated to model hemi-parkinsonism or sham operated. From the 9th to the 18th day of the experiment, the animals were injected either deuterium-depleted water or the test substance, according to their allocation into groups, for 10 days. On the 8th day of the experiment (before initiation of treatment—apomorphine test I) and on the 21st day of the experiment (after the end of administering the test substance —apomorphine test II) the animals underwent an apomorphine test to analyze the development of hemi-parkinsonism which correlates with the number of destroyed dopaminergic neurons. In addition, a follow-up analysis of fecal water content was carried out, i.e., before the start of treatment on the 8th day after the operation, as well as on the 21st (after the end of treatment) and the 28th day (before autopsy). On the 24th day of the experiment, behavioral tests were carried out in all groups. All animals were weighed before autopsy. […]
# [3] = tested on: LPS rat models of Parkinson's disease; assay: Pick-up test; conditions: group V (LPS+^64Zn-asp) versus group IV (LPS)
# From the text: The pick-up test is a test for increased irritability. The animal is picked up by grasping around the body. Responses were scored as 1, very easy; 2, easy with vocalizations; 3, some difficulty, the rat rears and faces the hand; 4, the rat freezes (with or without vocalization); 5, difficult, the rat avoids the hand by moving away; and 6, very difficult, the rat behaves defensively, and may attack the hand.
# On the 1st day of the experiment, rats were either operated to model hemi-parkinsonism or sham operated. From the 9th to the 18th day of the experiment, the animals were injected either deuterium-depleted water or the test substance, according to their allocation into groups, for 10 days. […] On the 24th day of the experiment, behavioral tests were carried out in all groups.
# [4] = tested on: LPS rat models of parkinsonism; assay: Apomorphine test in LPS rat models of parkinsonism
# Description: Chronic dopamine deficiency of the left hemisphere was modeled by unilateral destruction of dopaminergic neurons in the Substantia nigra pars compacta portion of the brain. It was induced by stereotactic microinjections of 10 μg endotoxin (lipopolysaccharide) (Lipopolysaccharides from Escherichia coli O111:B4, cat. L2630 Sigma) dissolved in 2 μl sterile 0.9% NaCl (Infuzia CJSC, Ukraine). The solution was prepared on the day of a surgical procedure. A flask containing the resulting solution was sealed with a drop of silicone oil (STEP-E[…], Ukraine) and placed in a refrigerator.
# An animal, anesthetized using a mixture of ketamine (75 mg/kg, diluted in sterile water for injection, Sigma, USA) and 2% xylazine ([…], Alfasan International B.V., Netherlands) administered intraperitoneally in a total volume of 1 ml, was placed in a stereotaxic apparatus (SEZH-4) modified for rats. The animal was then scalped and a trephine opening was made with an injection needle, directly into the substantia nigra (AP=−5.3; ML=±2.0; DV=−7.2). Dissolved LPS was collected into a home-made microinjector and its tip was dropped into the trephine opening.
# Endotoxin at a dose of 10 μg in a volume of 2 μl was injected in the brain tissue at a rate of […] (every 15 seconds). After endotoxin was administered, the tip of the microinjector remained in the brain tissue for 5 minutes. The microinjector was then removed and stitches were put on the scalp soft tissues of the animal. Control animals were administered 2 μl sterile 0.9% NaCl, instead of LPS (sham operated animals).
# The percentage of destroyed dopaminergic neurons was calculated using an apomorphine test. The intensity of rotational motions of an animal to the contralateral side of the hemisphere into which endotoxin was injected was assessed. A similar motor activity was induced by systemic intraperitoneal administration of apomorphine, a dopamine receptor agonist (0.5 mg/kg, Sigma, USA). The intensity of such rotational motions for 30 minutes indicated the degree of degradation of the nigrostriatal dopamine system (SA Talanov et al., Neurophysiology 38 (2), 128-133). The number of animals in which the number of rotations increased, decreased or remained unchanged within 30 minutes between apomorphine test I and II was quantified.
# On the 1st day of the experiment, rats were either operated to model hemi-parkinsonism or sham operated. From the 9th to the 18th day of the experiment, the animals were injected either deuterium-depleted water or the test substance, according to their allocation into groups, for 10 days. […]
substance,measurement,setting,value
^64Zn-enriched zinc aspartate [^64Zne-asp],frequency of defecations (in words),[1]; LPS + ^64Zn-asp versus LPS + deuterium-depleted water,increased
same,Number of defecations,"[1]; LPS + ^64Zn-asp, Gr. V",7 ± 2.582
same,Number of groomings,"[1]; LPS + ^64Zn-asp, Gr. V",3.5 ± 1.354
same,Number of rearings,"[1]; LPS + ^64Zn-asp, Gr. V",14.4 ± 6.687
same,Time spent in the inner perimeter,"[1]; LPS + ^64Zn-asp, Gr. V",9.235 ± 9.344 s
same,Time spent in the outer perimeter,"[1]; LPS + ^64Zn-asp, Gr. V",290.8 ± 9.333 s
same,"Total distance travelled, cm","[1]; LPS + ^64Zn-asp, Gr. V",1056 ± 423 cm
same,"levels of locomotor activity, anxiety or irritability (summary of behavioral tests)",[1]; findings of Example 7,no significant effects
same,"total distance travelled, time in outer and inner perimeter, number of rearings and groomings (in words)",[1]; group V (LPS+^64Zn-asp) versus group IV (LPS),did not have any effect
same,expression of nitric oxide synthase enzyme in astrocytes,[2],increase
same,irritation in the pick-up test,[3],statistically significant elevation
same,rats with increased number of rotations between the 1st and 2nd apomorphine tests,"[4]; 1.5 mg/kg i.v. for 10 days, 2 out of 14 animals",14.3%
same,rats with a fewer number of rotations between the 1st and 2nd apomorphine tests,"[4]; 1.5 mg/kg i.v. for 10 days, 12 out of 14 animals",85.7%
same,difference in the mean number of rotations between the 1st and 2nd apomorphine tests,"[4]; LPS rats, 1.5 mg/kg i.v. for 10 days, listed as 64Zn-asp, 1.5 mg/kg",no significant difference; also recorded: did not cause a significant change
same,"mean number of rotations, 1st apomorphine test","[4]; LPS rats, day 8, before start of treatment",91.2±107.7 rot./30 min
